Measured values published in patent publication US20170112777A1, “PROTEIN-BASED PARTICLES FOR DRUG DELIVERY” (Dana-Farber Cancer Institute, Inc., priority 2014, published 2017).

System: healthy balb/C mice
Test: Tolerability of intraperitoneal pirfenidone dose
Assay type: in vivo
Details: free drug in 10% ethanol in PBS, 200 mg/kg
Method: Pirfenidone was dissolved in a 10% ethanol in PBS solution and administered intraperitoneally to healthy balb/C mice. The intraperitoneal pirfenidone dose was 200 mg/kg. […] However, the same dose was well-tolerated using albumin nanoparticles containing pirfenidone. The nanoparticles were injected twice daily for a total dose of 200 mg/kg per day for 16 days. This example highlights the ability of drug-loaded nanoparticles to slowly release drugs and lower their toxic side effects.

Q: With Cc1ccc(=O)n(-c2ccccc2)c1 [Pirfenidone, pirfenidone] as the compound, how does the Tolerability read?
A: immediate neurological symptoms in the mice as well as death
